Source: PMC6433232, “Targeting mitochondria in cancer therapy could provide a basis for the selective anti-cancer activity” (PLoS ONE, 2019)

How the values were obtained:
human GAPDH enzyme = target: T1, human GAPDH enzyme (Homo sapiens, UniProt P04406); assay: GAPDH activity assay in MIA PaCa-2 cells; format: cell-based; conditions: 2 h, read-out: GAPDH, enzyme residual activity as compared to DMSO-treated sample
T1 construct: endogenous in cells; host or cells: MIA PaCa-2 cells
Experimental: Cells were incubated for 2 h with either compounds (30 μM) or DMSO in a 6-well plate. Next, cells were collected in 200 μl of PBS and disrupted by sonication. Insoluble material was removed by centrifugation. The level of GAPDH activity was determined by GAPDH activity assay kit (BioVision).
As a final step, we evaluated the inhibitory activity of the selected compounds against human GAPDH enzyme in a cell-based assay using MIA PaCa-2 cells (Table 1). Cells were pre-incubated with compounds for 2 h at 37°C followed by cell lysis using sonication and GAPDH activity assay. The ability of compounds to inhibit GAPDH was expressed as percentage of GAPDH residual activity with respect to DMSO-treated cells. […] Similar to the GSR activity assay, only two of the most toxic compounds 31 and 32, were able to inhibit GAPDH by 95 and 97%, respectively.

[1] = system: Recombinant NADH/NADPH dehydrogenase; assay: NADH/NADPH dehydrogenase-mediated ROS generation assay; format: biochemical; conditions: 30 μM, 4 h at 37°C; for H2O2 generation, NADH/NADPH dehydrogenase -: absence of NADH/NADPH dehydrogenase; for H2O2 generation, NADH/NADPH dehydrogenase +: presence of NADH/NADPH dehydrogenase
Experimental: Recombinant NADH/NADPH dehydrogenase (0.5 units/well) in a 96-well plate was incubated in 100 μl of the assay buffer (50 mM potassium phosphate buffer, pH 7.5 supplemented with 1 mM EDTA) containing NADPH (3 μM) and superoxide dismutase (SOD) (100 units/well) with and without compound (30 μM) for 4 h at 37°C. At the end of incubation, the level of hydrogen peroxide was measured using a Hydrogen Peroxide Assay kit (Cayman). Control samples were without NADH/NADPH dehydrogenase. The rate of NADH/NADPH dehydrogenase- and compound-mediated ROS production was determined by subtracting values that were obtained in the absence of NADPH dehydrogenase. One unit of NADH/NADPH dehydrogenase was defined as the amount of enzyme required to reduce 1.0 μmole cytochrome C per min/mg in the presence of menadione substrate at 37°C. One unit of SOD was defined as the amount of enzyme required to inhibit reduction of cytochrome C by 50% in a coupled system with xanthine oxidase at pH 7.8 at 25°C in a 3.0 mL reaction volume. Xanthine oxidase concentration should produce an initial ΔA550 of 0.025 ± 0.005 per min.
As the next step, we examined the capability of the selected compounds to generate ROS in the presence or absence of NADH/NADPH dehydrogenase (Table 1). ROS can be generated by NADH/NADPH-dehydrogenase via the one electron reduction of a quinone ring of 1,4-NQs. Unstable half-reduced quinones (semiquinones) transfer electrons to molecular oxygen, thus generating superoxide anion radicals (O2^●-), which are converted by SOD to hydrogen peroxide. We believe that our assay measuring compound’s ability to generate H2O2 in the presence or absence of NADH/NADPH dehydrogenase more closely resembles conditions inside the cell than the assay designed to measure compound’s redox potential values. […] To determine the ability of compounds to induce ROS, compounds were incubated for 4 h at 37°C with and without NADH/NADPH-dehydrogenase in the presence of NADPH as an electron donor and SOD to convert generated superoxide radicals into hydrogen peroxide. At the end of incubation, 10-acetyl-3,7-dihydroxyphenoxazine (ADHP) and horseradish peroxidase (HRP) were added to the reaction and the level of HRP-mediated formation of the fluorogenic product, resorufin, was measured on a plate reader. ROS production was detected in reactions with either the toxic or non-toxic compounds.

[2] = system: Complex I (bovine heart mitochondria); assay: MitoCheck Complex I activity assay; conditions: 30 μM; bovine heart mitochondria; NADH oxidation
Experimental: MitoCheck Complex I activity was determined as described in the manual of the manufacturer’s manual (Cayman). Briefly, compounds (30 μM) or DMSO were mixed with the Complex I activity assay buffer that contained bovine heart mitochondria reagent, NADH, and ubiquinone in the presence of KCN to inhibit complex IV activity. The level of Complex I activity was monitored in a kinetic assay of NADH oxidation by measuring a decrease in absorbance at 340 nm. The residual Complex I activity was calculated by dividing the rate of compound wells by the rate of DMSO wells for the linear portion of the curve.
To test possible effects of compounds on ETC, we analyzed the Complex I-mediated NADH oxidation using a MitoCheck Complex I Activity Assay Kit. The level of NADH oxidation was measured by a decrease in absorbance at 340 nm and expressed as percentage of residual activity in relation to DMSO-treated mitochondria (Table 1). […] Complex I activity was estimated by the rate of NADH oxidation which was also affected by NADH/NADPH-dehydrogenase-mediated redox cycling.

[3] = Distribution coefficient LogD; format: physicochemical; conditions: octanol/water, pH 7.4; read-out: LogD, pH = 7.4
From the text: We conclude that the analysis of the octanol-water partitioning is not sufficient to establish a link between degree of lipophilicity and biological activities of the selected compounds.

in vitro = conditions: human, primary hepatocytes
From the text: (§3) We selected hepatocytes as normal cells because hepatocytes are mediate toxicity to multiple drugs and are used as a standard to assess toxicity of drugs in vitro [28]. […] For comparison with the standard of care, doxorubicin was also included in this analysis.

hepatocytes = assay: Hydrogen peroxide cell-based assay (ROS induction), hepatocytes; design: species or system Human; conditions: 30 μM; hydrogen peroxide level relative to DMSO-treated cells (100%)
Experimental: (§1) Cells were incubated for 2 h with either compounds (30 μM) or DMSO in a 96-well plate. After the treatment, 80 μl of cell culture medium was collected and the level of hydrogen peroxide was determined using a Hydrogen Peroxide Cell-Based Assay kit (Cayman).
(§2) Cells were incubated with the compounds for 4 h and the level of ROS induction was measured by a hydrogen peroxide cell-based assay kit. Compounds were assayed at a fixed concentration of 30 μM and the measured level of hydrogen peroxide was expressed as percentage in relation to DMSO-treated cells (100%). […] This distinction was more evident for compounds with the highest selective cytotoxicity index. […] We conclude that the selective induction of ROS in cancer cells is required but not sufficient factor for the selective anti-tumor activity.

[4] = system: pancreatic cancer MIA PaCa-2 cells; assay: cells; conditions: for EC50 / CC50: Homo sapiens; for EC50: MIA PaCa-2, read-out: EC50, μM MIA PaCa-2; for CC50: MIA PaCa-2, read-out: LC50 MIA PaCa-2
Experimental: Fig 1 A, Structure of NSC130362. B, Dose response curve of NSC130362 in MIA PaCa-2 cells. Cells were pre-incubated with NSC130362 for 2 h followed by addition of ATO (5 μM) and incubation for an additional 24 h. At the end of the treatment, the ratio of dead cells was determined by a CellTiterGlo reagent.

[5] = system: human primary hepatocytes; assay: cells; conditions: Hepatocyte, read-out: EC50, μM Hepatocytes
From the text: as §3

MIA PaCa-2 cells = assay: Hydrogen peroxide cell-based assay (ROS induction), MIA PaCa-2 cells; conditions: Homo sapiens, hydrogen peroxide level relative to DMSO-treated cells (100%), read-out: ROS increase, % MIA PaCa-2
Experimental: as §1, §2

T1 sequence (P04406 whole entry): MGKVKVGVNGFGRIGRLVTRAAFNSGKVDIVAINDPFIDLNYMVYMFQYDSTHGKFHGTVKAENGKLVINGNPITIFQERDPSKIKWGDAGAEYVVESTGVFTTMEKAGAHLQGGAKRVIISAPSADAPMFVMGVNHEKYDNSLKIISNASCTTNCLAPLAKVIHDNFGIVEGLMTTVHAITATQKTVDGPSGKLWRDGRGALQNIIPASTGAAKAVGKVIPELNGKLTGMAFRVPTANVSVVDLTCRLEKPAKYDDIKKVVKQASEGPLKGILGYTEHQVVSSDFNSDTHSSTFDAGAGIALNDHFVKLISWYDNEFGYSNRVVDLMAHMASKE

SMILES	remaining activity at 30 µM (human GAPDH enzyme)	H2O2 generation, NADH/NADPH dehydrogenase - [1]	H2O2 generation, NADH/NADPH dehydrogenase + [1]	Mito Check I, enzyme residual activity as compared to DMSO-treated sample [2]	logD [3]	CC50 (in vitro)	ROS increase, % Hepatocytes (hepatocytes)	EC50 [4]	EC50 [5]	activity at 30 µM (MIA PaCa-2 cells)	CC50 [4]	increase in anti-cancer activity ([4]; versus compound 64)
O=C1C(Cl)=C(Nc2nccs2)C(=O)c2ccccc21 [compound 38]	100%	1.9 µM	2.7 µM	105%	0.1	26 µM	100%	> 90 µM	26 µM	100%		
Cc1ccccc1NC1=C(Cl)C(=O)c2ccccc2C1=O [compound 40]	88%	5.0 µM	2.9 µM	103%	0	24.5 µM	122%	78.5 µM	24.5 µM	111%	78.5 µM	
O=C1C(Nc2ccccc2)=CC(=O)c2ncccc21 [compound 67, reference compound]	76%	5.5 µM	11.9 µM	116%	3.45	17.8 µM	179%	1 µM	17.8 µM	783%	1 µM	approximately 10 fold
